Experiments:
[1] = system: luteinising hormone and follicle-stimulating hormone genes in the pituitary gland; assay: Gene expression (HGU133A) in the pituitary gland of ovariectomized monkeys treated with estradiol, tamoxifen or raloxifene; assay type: in vivo, cynomolgus monkeys (Macaca fascicularis); conditions: for Fold change relative to OVX: Follicle stimulating hormone / Fold change relative to OVX: Luteinising hormone / Fold expression change to SHAM control: Follicle stimulating hormone / Fold expression change to SHAM control: Luteinising hormone: pituitary gland
Protocol: Female sexually mature cynomolgus monkeys (Macaca fascicularis obtained from R. C. Hartelust B V, Tilburg, the Netherlands) approximately 48 months old were subjected to surgery (ovarectomy [OVX] or sham) 10 weeks prior to treatment and were treated for parasitic arthropods and helminthes, subjected to a tuberculin testing, and acclimated to the treatment facility for at least 14 days before beginning treatment.
Surgical Procedures. The ovariectomized cynomolgus monkey (Macaca fascicularis), which has been validated as a useful model predictive of outcomes in human clinical trials of estrogen and SERMs (Cline J M et al., Toxicol Pathol. 29:84-90 (2001)), was used as a model of estrogen deficiency. Animals were ovariectomized approximately 10 weeks before the first day of treatment. The ovaries were removed following anesthesia with a combined intramuscular injection of xylazine (Rompun®: 0.4 mL/animal, Bayer Pharma Division Sante Animale, Puteaux, France) and ketamine hydrochloride (Imalgéne®: 0.6 mL/kg, Mérial, Lyon, France). Sham-operated animals were subjected to the same surgical procedure, except for the removal of ovaries.
Ovariectomized and sham-operated animals were divided into groups of 4 and treated as outlined below.
Gene expression was determined in the pituitary and uterus at the end of drug therapy. Tissues to be analyzed (pituitary glands and uterus) were excised, snap frozen in liquid nitrogen, and stored at −80° C. until RNA extraction was performed.
Total RNA was obtained by acid guanidinium isothiocyanate-phenol-chloroform extraction (Trizol; Invitrogen Life Technologies, San Diego, Calif., USA) and purified on an affinity resin column (RNeasy; Qiagen, Hilden, Germany) according to manufacturer instructions. […] Lockhart D J, Dong H, Byrne M C, et al. Nat. Biotechnol. 1996; 14:1675-1680.
Previous studies have proven the validity of cross-species DNA chip analysis (Hacia J G et al. Nat Genet. 18:155-158 (1998)), therefore, the human gene expression probe arrays HGU133A (Affymetrix, Santa Clara, Calif., USA) containing 22,283 probe sets interrogating primarily annotated human genes were used. One GeneChip was used per tissue, per animal. The resulting image files (.dat files) were processed using the Microarray Analysis Suite 5 (MAS5) software (Affymetrix, Inc.). Tab-delimited files were obtained containing data regarding signal intensity (Signal) and categorical expression level measurement (Absolute Call).

[2] = system: uterine gene expression; assay: Ranking of drug activity according to uterine GEP (GEP scoring axis, PCA; estrogenic potency score); assay type: in vivo, cynomolgus monkeys (Macaca fascicularis)
Excerpt: To define a reference axis representing the desired pharmacological/toxicological action, we used a priori knowledge of 2 groups representing or approximating the extremes of the condition under study. These consisted of the OVX group (OVX untreated animals representing the one extreme) and OVX+estradiol (OVX animals treated with estradiol, an agent know to exercise a well-defined action, representing the other extreme). These two groups were used to quantitatively scale the axis. Other compounds were then positioned on this axis whereby the drugs could be ranked with regard to specific aspects of a pharmacological/toxicological action.
Generally, the data derived from an individual microarray, proteomic, or metabolite profiling experiment can be considered as a fingerprint. […] Thus, selection and elimination of the appropriate features is an important aspect of this methodology and the quantitative nature of this approach depends on the features used to define the axis of drug action.
In the case of a well-defined condition, it is possible to invoke a priori knowledge on the selection of features. If the molecular biology of the specific drug action is known, the features (e.g. genes, metabolites) to be used for the definition of the axis can be defined a priori. In the case of a less-well-defined condition, it is possible to use univariate filters (in this case, gene intensity >50, ≧1.5-fold change in expression vs. controls [OVX], and statistical significance and statistical methods to identify and exclude non-informative features.
Issues of transformation, centering (variable-wise), and scaling of the data were considered. In the case of microarrays, the data were log10-transformed and probe set-wise centered. Generally, no scaling was applied. When using only a small number of biologically identified features, these were scaled to unit variance.
To calculate the axis of drug action, a principal component axis (PCA) was performed using only the 2 treatment groups that were at the extremes (the untreated OVX animals vs. the estrodiol-treated OVX animals). Massart D L et al., Handbook for Chemometrics and Qualimetrics, Part a. (Elsevier; 1997); Jolliffe I T. Principal Component Analysis. 2nd Edition (Springer; New York, N.Y., 2002). Only 1 principal component (PC) was calculated, which was a weighted linear combination of all features in the input data pointing in the direction of maximum variance. The weights of the probe sets in this linear combination were called “loadings” and their absolute value is a measure of their importance in explaining the difference between the 2 groups. Every measurement in the experiment (e.g. microarray) could then be represented by its coordinate (score) on the PC. Alternatively, to obtain an even better separation between the groups, the PLS-DA (Partial-Least-Squares Discriminate Analysis) method with a 0/1 dummy variable as response vector was used. […] Massart D L et al., Handbook of Chemometrics and Qualimetrics, Part b. (Elsevier; 1997). The next step was identification of the features that were important for the definition of the axis. This was based on the magnitude of their loadings and their statistical significance using error estimates based on cross-validation and/or normal probability plots of the loadings. Hunter W G & Hunter J S. Statistics for Experimenters: an Introduction to Design, Data Analysis, and Model Building. 1st Edition (Wiley; 1978). This enabled calculation of a new PCA model using only the important features.
If a pharmacological or toxicological action affected multiple biochemical pathways that were represented by grossly different numbers of features in the measurement, block scaling was used. Eriksson L et al., Multi-and Megavariate Data Analysis-Principles and Applications. (Umetrics Academy; 2001). This attributed the same influence to all pathways (groups of features) in the calculation of the PCA model. […]

[3] = Routine clinical and biochemical observations in FGF23CTP-treated monkeys; assay type: in vivo, cynomolgus monkey; conditions: 100 μg/day sc, two weeks
[4] = 123 genes thought to have a role in uterine function
[5] = 225 genes, statistically significant >1.5-fold changes
[6] = 673 genes, >1.5-fold change disregarding statistical significance

Molecule | Fold change relative to OVX: Follicle stimulating hormone [1] [fold] | Fold change relative to OVX: Luteinising hormone [1] [fold] | Fold expression change to SHAM control: Follicle stimulating hormone ([1]; OVX monkeys) [fold] | Fold expression change to SHAM control: Luteinising hormone ([1]; OVX monkeys) [fold] | Estrogenic score (GEP score; OVX 0, estradiol 100) [2, 4] | Estrogenic score (GEP score; OVX 0, estradiol 100) [2, 5] | Estrogenic score (GEP score; OVX 0, estradiol 100) [2, 6] | Estrogenic scores in specific gene groups (categories) ([2]; subanalysis per gene class) | Decrease of FSH transcripts in the pituitary gland ([1]; OVX monkeys) [fold] | Decrease of LH transcripts in the pituitary gland ([1]; OVX monkeys) [fold] | Effect on phosphate metabolism [3] | Routine clinical or biochemical changes [3]
C#C[C@]1(O)CC[C@H]2[C@@H]3CCc4cc(O)ccc4[C@H]3CC[C@@]21C [EE] | <0.1 | 0.1 | 0.1 | 0.5 |  |  |  |  |  |  |  | 
O=C(c1ccc(OCCN2CCCCC2)cc1)c1c(-c2ccc(O)cc2)sc2cc(O)ccc12 [raloxifene] | 0.8 | 1.3 | 5.2 | 9.8 | 20 | 23 | 34 | −11 to 32 |  |  |  | 
CC/C(=C(\c1ccccc1)c1ccc(OCCN(C)C)cc1)c1ccccc1 [tamoxifen] | 0.4 | 0.4 | 2.3 | 3.2 | 69 | 59 | 71 |  | 2.7 | 2.4 |  | 
FGF23CTP: unique 75-mer COOH-terminal peptide of FGF-23, SEQ ID NO: 2 (peptide, listed as Homo sapiens) HTRSAEDDSERDPLNVLKPRARMTPAPASCSQELPSAEDNSPMASDPLGVVRGGRVNTHAGGTGPEGCRPFAKFI |  |  |  |  |  |  |  |  |  |  | no effect | No routine clinical or biochemical changes

— patent publication US20130040882A1, “USE OF FIBROBLAST GROWTH FACTOR FRAGMENTS” (NOVARTIS AG, priority 2003, published 2013)
